Laboratory results from patent US20240059729A1, “MULTIFUNCTIONAL CYCLIC DINUCLEOTIDE AND USE THEREOF” (TYLIGAND BIOSCIENCE (SHANGHAI) LIMITED, priority 2020, published 2024).
Where a name gives a salt, the structure may show the parent alone.

What was measured:
[1] = test system: IFN-β secretion by THP-1 cells; experiment: Activation of IFN-β secretion by THP-1 cells (Human IFN-beta ELISA); format: cell-based; details: for EC50 / Activating effect on IFN-β secretion / STING agonist activity (in words): THP-1 cells; for EC50: 24 hours, IFN-β ELISA; for Activating effect on IFN-β secretion / STING agonist activity (in words): EC50 compared with 2′,3′-cGAMP and ADU-S100; for Highest concentration of IFN-β secreted by stimulated THP-1 cells: compared with ADU-S100
Experimental: THP-1 cell, a human monocytic leukemia cell line, has the STING phenotype of HAQ type, i.e., R71H-G230A-R293Q. This assay used the Human IFN-beta DuoSet ELISA Kit from R & D (R & D, Cat #DY814-05) and the DuoSet ELISA Ancillary Reagent Kit 2 (R & D, Cat #DY008) to evaluate the activation of IFN-β secretion from THP-1 cells by representative compounds of the invention.
In thawing the THP-1 cells (ATCC #TIB-202), a cell freezing tube was quickly shaken in a water bath at 37° C. to thaw the cells within 1 min. The thawed cell suspension was taken and evenly mixed with an RPMI1640 medium (Hyclone, product #SH30027.01) containing 10% FBS (Life Technology, Cat #10099-141), centrifuged for 5 min at 1000 rpm, and the supernatant was discarded. The cell pellet was resuspended in 5 mL of the complete medium (RPMI 1640 medium containing 10% FBS), placed into a cell culture flask with a bottom area of 25 cm^2, and incubated in a cell incubator at 37° C., 5% CO2 and 95% humidity. When the cell confluence reached about 80%, the cells were passaged. All the cells in the culture flask were transferred to a 15 mL centrifuge tube, centrifuged for 5 min at 1000 rpm, and the supernatant was discarded. 5 mL of fresh complete medium was added to re-suspend the cell pellet, 1 mL of which was taken to place in a cell culture flask with a bottom area of 25 cm^2, supplemented with 4 mL of fresh complete medium for further incubation. When the cell confluence reached about 80% again, plating was conducted following the procedure of cell passage, retaining 1/5 cell suspension for further inculation and remaining 4/5 of the cell suspension in a 15 mL centrifuge tube. The cell suspension was centrifuged to discard the old culture medium, washed once using RPMI1640 culture medium (serum-free), and centrifuged to remove the supernatant. The cells were then re-suspended in RPMI1640 culture medium (serum-free). Cell viability was then detected by Trypan blue exclusion test and to be used for plating when the cell viability was confirmed to be more than 95%. A cell suspension with a density of 1.1×10^6 viable cells/mL was prepared using RPMI1640 culture medium (serum-free), and 180 μL of the cell suspension was added to a 96-well cell culture plate (NUNC Company, Cat #167008) so that the cell density in the plate was 2×10^5 viable cells/well.
A 10 mM stock solution of the compounds in DMSO was first serially diluted at 3.16-fold with DMSO (Sigma, Cat #D2650) to the 5th concentration, and the 6th concentration was set as DMSO control (compound-free). Then, the DMSO solutions containing different concentrations of the compounds were diluted at 10-fold with PBS so that the DMSO content in each compound solution of various concentrations was 10%. Finally, 20 μL of each of such solutions was added into corresponding cell culture plate to provide an initial compound concentration of 100 μM, with the dilution fold of adjacent concentrations being 3.16 and the DMSO content in the cell culture plate being 1%. The cell plate was placed in a cell incubator for further 24 hours.
ELISA detection was conducted referring to the instructions from R & D System, Cat #DY814-05.
ELISA plate coating: PBS (R & D System Cat #DY006) was used to dilute the capture antibody (mouse anti-human IFN-β capture antibody PART #844508) to provide the working concentration, and 100 μL capture antibody working solution was added to a 96-well ELISA plate which was then sealed and incubated overnight at room temperature. Upon discarding the capture antibody working solution, the cell plate was washed 3 times with a washing buffer (0.05% Tween-20 in PBS, pH 7.2-7.4, R & D System Cat #WA126) at 400 μL of the washing buffer per well, and the washing buffer was thoroughly removed after each washing, with the final washing to be completely removed of the wash buffer by inverting and claping the plate to a clean piece of paper. […]

[2] = test system: CT26 cells; experiment: Anti-tumor activity in bilateral transplantation tumor model of CT26 syngeneic mouse; format: in vivo, BALB/c mice; details: Day 0 and Day 4; for Growth inhibition rate, untreated left tumor: Day 13 post-dose, 50 μg/mouse intratumorally right side; for Inhibition of tumor growth, treated right-side tumor: Day 13 post-dosing, 50 μg/mouse (2.5 mg/kg) intratumorally right side
Experimental: BALB/c mice of 6-8 weeks (purchased from Shanghai Ling Chang Biotech Co., Ltd.) were inoculated with 5×10^5 CT26 cells (supplied by Taicang Zexin Biotechnology Co., Ltd., ATCC #CRL-2638) subcutaneously on the left and right back dorsal, respectively, and the inoculation volume was 0.1 mL/side. When tumors grew to an average volume of 100 mm^3, they were randomized according to tumor size and mouse body weight and dosing was initiated. The day of the first dose was Day 0.
Two doses were administered on Day 0 and Day 4, with 50 μg of compound/mouse (i.e., 2.5 mg/kg) injected intratumorally right side, with the same volume of PBS (Hyclone, Cat #SH30258.01) as a control. The tumor on the left side was not treated. The control mice were sacrificed 13 days and the treated mice were sacrificed 21 days, after dosing. During the experiment, tumor volumes on the left and right sides and the body weights were measured 3 times per week, and the tumor volume was calculated as V=D×d×d/2 (where D represents length of tumor and d represents width of tumor).

[3] = test system: CT26 cells; experiment: Anti-tumor activity in transplantation tumor model of CT26 nude mouse; format: in vivo, BALB/c nude mice; details: for Tumor growth inhibition rate in T cell immunodeficient nude mice: Day 9 post-dosing, 50 μg/mouse (2.5 mg/kg) intratumorally, Day 0 and Day 4; for Tumor growth inhibition in immuno-competent mice versus nude mice (in words): FIG. 2D
Experimental: BALB/c nude mice of 6-8 weeks (purchased from Shanghai Ling Chang Biotech Co., Ltd.) were inoculated with 5×10^5 CT26 cells (supplied by Taicang Zexin Biotechnology Co., Ltd., ATCC #CRL-2638) subcutaneously on the right back dorsal, respectively, and the inoculation volume was 0.1 mL. When tumors grew to an average volume of 100 mm^3, they were randomized according to tumor size and mouse body weight and dosed. The day of the first dose was Day 0. Two doses were administered on Day 0 and Day 4, with 50 μg of compound/mouse (i.e., 2.5 mg/kg) injected intratumorally right side, with the same volume of PBS (Hyclone, Cat #SH30258.01) as a control. The control mice were sacrificed 9 days, the ADU-S100 treated mice were sacrificed 14 days, and Example 10 treated mice were sacrificed 16 days, after dosing, respectively. During the experiment, tumor volumes and the body weights were measured 3 times per week, and the tumor volume was calculated as V=D×d×d/2 (Ibid).

| SMILES | EC50 ([1]; Homo sapiens, THP-1, 24 h) [µM] | Activating effect on IFN-β secretion / STING agonist activity (in words) [1] | Highest concentration of IFN-β secreted by stimulated THP-1 cells [1] | Growth inhibition rate, untreated left tumor [2] [%] | Inhibition of tumor growth, treated right-side tumor [2] [%] | Tumor growth inhibition rate in T cell immunodeficient nude mice [3] [%] | Tumor growth inhibition in immuno-competent mice versus nude mice (in words) [3] | EC50 [1] [µM] |
| --- | --- | --- | --- | --- | --- | --- | --- | --- |
| Nc1nc2c(ncn2[C@@H]2O[C@@H]3CO[P@@](=O)(S)OC4C(F)[C@H](n5cnc6c(N)nc(Cl)nc65)O[C@@H]4CO[P@@](=O)(S)OC3C2O)c(=O)[nH]1 (stereo partly shown) [Example 17, diammonium salt] | 1 to 10 | significant STING agonist activity | higher than that of ADU-S100 | 67.4 | 99.5 |  |  |  |
| Nc1nc2c(ncn2[C@@H]2O[C@@H]3CO[P@@](=O)(S)OC4C(F)[C@H](n5cnc6c(N)nc(Cl)nc65)O[C@@H]4CO[P@@](=O)(S)OC2C3O)c(=O)[nH]1 (stereo partly drawn) [Example 10, (2′,3′)-cyclo-(Rp,Rp)-[2′-O-phosphorothioate-diester-guanosine]-[3′-O-phosphorothioate-diester-2-chloro-2′-deoxy-2′-fluoro-beta-adenosine] diammonium salt] | 1 to 10 | significant STING agonist activity | higher than that of ADU-S100 | 91.2 |  | 94.4 | better tumor growth inhibition in immuno-competent mice than in nude mice |  |
| Nc1ncnc2c1ncn2[C@@H]1O[C@@H]2COP(=O)([S-])O[C@@H]3[C@H](O)[C@@H](COP([O-])(=S)O[C@H]2[C@H]1O)O[C@H]3n1cnc2c(N)ncnc21.[Na+].[Na+] (stereo partly shown) [ADU-S100, reference compound] |  |  |  | 64.2 | 99.1 | 61.4 | better tumor growth inhibition in immuno-competent mice than in nude mice | 1 to 10 |
